Measurements: patent publication US9743685B2, “Mixtures having improved cooling effect” (SYMRISE AG, priority 2012, dated 2017)

Test: Sensory comparison of flavored formulation examples with the flavor not according to the invention
Type: in vivo

## C/C=C(/C=O)c1ccccc1 [2-phenyl-but-2-enal, 2-Phenyl-but-2-enal]
Standard chewing gum, 2% peppermint type flavor (Example 2.11)
  Sensory effect compared to the flavor not according to the invention: intensified feeling of freshness together with an increased menthol taste and perception of coolness
sugar-free chewing gum, 1% Cinnamon type flavor Cool (Example 2.10), especially in the initial phase of consumption
  Sensory effect compared to the flavor not according to the invention: intensified feeling of freshness together with an increased menthol taste and perception of coolness
Toothpaste (Silica opaque), 1% peppermint type flavor Cool (Example 2.14)
  Sensory effect compared to the flavor not according to the invention: fresher mouthfeel together with an increased menthol taste and perception of coolness
Toothpaste (phosphate base), 1% spearmint type flavor (Example 2.12), especially at the start of brushing
  Sensory effect compared to the flavor not according to the invention: definite feeling of freshness together with an increased menthol taste and perception of coolness
Toothpaste (transparent gel), 1% cinnamon type flavor (Example 2.13)
  Sensory effect compared to the flavor not according to the invention: clearer freshness profile together with an increased menthol taste and perception of coolness
